What all share (assay type): physicochemical
Data set [1] can be described thus: Influencing-factor stability of I crystal form and amorphous form, purity by HPLC (Agilent1200 DAD). The settings on record: for stability after long-term storage (in words): high temperature, high humidity. An excerpt: The stability of the I crystal form of the compound represented by formula (I) was investigated. The purity of the crystal form was detected by Agilent1200 DAD high performance liquid chromatography system, and Waters symmetry C18, (250*4.6 mm, 5 μm) was used as the detection column, mobile phase: sodium dihydrogen phosphate/ACN/H2O, detection wavelength: 261 nm.

Data set [2] can be described thus: Influencing-factor stability of I and IV crystal forms, purity by HPLC (Thermo Ultimate3000DAD). The settings on record: for crystal stability (in words): conditions of light, high temperature, and high humidity. The text has this:
The stability of the I and IV crystal form of the compound represented by formula (I) was investigated. The purity of the crystal forms was detected by Thermo Ultimate3000DAD high-performance liquid chromatography system, and Waters symmetry C18, (250*4.6 mm, 5 μm) was used as the detection chromatographic column, mobile phase: sodium dihydrogen phosphate/ACN/H2O, detection wavelength: 261 nm.

Data set [3] in a line: Solid properties / fluidity of crystal form.

For `CCOc1cc2ncc(C#N)c(Nc3ccc(OCc4ccccn4)c(Cl)c3)c2cc1NC(=O)/C=C/[C@H]1CCCN1C.O=C(O)/C=C\C(=O)O` [I crystal form], the purity % in data set [1] (40° C., day 0) turned out to be 99.56%; in data set [1] (40° C., day 5), 99.55%; in data set [1] (40° C., day 10), 99.51%; in data set [1] (40° C., day 30) it was 99.43%; in data set [1] (RH 75%, day 0) it was 99.56%; in data set [1] (RH 75%, day 5), 99.53%. Further, the purity % in data set [1] (RH 75%, day 10) was determined as 99.53%; in data set [1] (RH 75%, day 30) it was 99.52%; in data set [1] (RH 90%, day 0), 99.56%; in data set [1] (RH 90%, day 5) it was 99.53%; in data set [1] (RH 90%, day 10) it was 99.54%; in data set [1] (RH 90%, day 30), 99.51%. Moreover, the purity % in data set [1] (illumination, day 0) turned out to be 99.56%; in data set [1] (illumination, day 5), 99.35%; in data set [1] (illumination, day 10) it was 99.29%; in data set [1] (illumination, day 30), 99.00%; in data set [2] (40° C., day 0) it was 99.83%; in data set [2] (40° C., day 5) it was 99.78%. Besides, the purity % amounted to 99.77% in data set [2] (40° C., day 10); 99.69% in data set [2] (40° C., day 30); 99.83% in data set [2] (60° C., day 0); 99.64% in data set [2] (60° C., day 5); 99.51% in data set [2] (60° C., day 10); 99.24% in data set [2] (60° C., day 30). The purity % was determined as 99.83% in data set [2] (RH 75%, day 0); 99.81% in data set [2] (RH 75%, day 5); 99.81% in data set [2] (RH 75%, day 10); 99.68% in data set [2] (RH 75%, day 30); 99.83% in data set [2] (RH 90%, day 0); 99.81% in data set [2] (RH 90%, day 5). Also, the purity % in data set [2] (RH 90%, day 10) is given as 99.82%; in data set [2] (RH 90%, day 30) it was 99.82%; in data set [2] (illumination, day 0), 99.83%; in data set [2] (illumination, day 5), 99.68%; in data set [2] (illumination, day 10), 99.59%; in data set [2] (illumination, day 30) it was 99.29%. The “stability after long-term storage (in words)” value in data set [1] (illumination) is “good physical and chemical stability”. In addition, the “crystal stability (in words)” value in data set [2] is reported as “good crystal stability”.

`CCOc1cc2ncc(C#N)c(Nc3ccc(OCc4ccccn4)c(Cl)c3)c2cc1NC(=O)/C=C/[C@H]1CCCN1C.O=C(O)/C=C\C(=O)O` [II crystal form]: the fluidity result in data set [3] is recorded as “poor”.

For `CCOc1cc2ncc(C#N)c(Nc3ccc(OCc4ccccn4)c(Cl)c3)c2cc1NC(=O)/C=C/[C@H]1CCCN1C.O=C(O)/C=C\C(=O)O` [IV crystal form], the purity % in data set [2] (40° C., day 0) turned out to be 99.94%; in data set [2] (40° C., day 5), 99.92%; in data set [2] (40° C., day 10), 99.93%; in data set [2] (40° C., day 30) it was 99.85%; in data set [2] (60° C., day 0), 99.94%; in data set [2] (60° C., day 5) it was 99.83%. Moreover, the purity % is reported as 99.77% in data set [2] (60° C., day 10); 99.50% in data set [2] (60° C., day 30); 99.94% in data set [2] (RH 75%, day 0); 99.93% in data set [2] (RH 75%, day 5); 99.94% in data set [2] (RH 75%, day 10); 99.94% in data set [2] (RH 75%, day 30). The purity % in data set [2] (RH 90%, day 0) amounted to 99.94%; in data set [2] (RH 90%, day 5), 99.93%; in data set [2] (RH 90%, day 10), 99.94%; in data set [2] (RH 90%, day 30), 99.93%; in data set [2] (illumination, day 0), 99.94%; in data set [2] (illumination, day 5), 99.92%. The purity % in data set [2] (illumination, day 10) was determined as 99.92%; in data set [2] (illumination, day 30) it was 99.85%. Also, in data set [2], the “crystal stability (in words)” value is “good crystal stability”.

For the compound `CCOc1cc2ncc(C#N)c(Nc3ccc(OCc4ccccn4)c(Cl)c3)c2cc1NC(=O)/C=C/[C@H]1CCCN1C.O=C(O)/C=C\C(=O)O` [amorphous, reference compound], the purity % in data set [1] (40° C., day 0) is 99.31%; in data set [1] (40° C., day 5), 99.21%; in data set [1] (40° C., day 10), 99.13%; in data set [1] (40° C., day 30) it was 98.57%; in data set [1] (RH 75%, day 0), 99.31%; in data set [1] (RH 75%, day 5) it was 99.35%. Moreover, the purity % turned out to be 99.33% in data set [1] (RH 75%, day 10); 99.09% in data set [1] (RH 75%, day 30); 99.31% in data set [1] (RH 90%, day 0); 95.76% in data set [1] (RH 90%, day 5); 94.05% in data set [1] (RH 90%, day 10); 85.09% in data set [1] (RH 90%, day 30). Moreover, the purity % was determined as 99.31% in data set [1] (illumination, day 0); 98.04% in data set [1] (illumination, day 5); 96.65% in data set [1] (illumination, day 10); 93.48% in data set [1] (illumination, day 30). Moreover, the “stability after long-term storage (in words)” value in data set [1] (illumination, listed as amorphous form) is on record as “poor stability”.
